# Test results taken from PubChem BioAssay AID2060882 (Molecular Pharmacology Branch, DTP, NCI, 2025).
# Test system: 898857-211-R-J1-PDC complex spheroids, growth % test/control
# Assay: Anticancer human tumor 898857-211-R-J1-PDC patient-derived melanoma cell line growth inhibition [RAS]
# Conditions: for IC50: curve of first compound; for viability, T/C: stronger effect = lower value
# In short: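 Multi-cell-type spheroids: tumor cells plus HUVEC endothelial cells and mesenchymal stem cells. RAS-pathway inhibitors were combined with targeted agents, each dosed in half-log steps down from clinical Cmax, or from 10 microM when Cmax was unknown.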
# [1] = second compound 0.000949 µM, first compound 0.0316 µM
# [2] = second compound 0.000949 µM, first compound 0.1 µM
# [3] = second compound 0.000949 µM, first compound 0.316 µM
# [4] = second compound 0.000949 µM, first compound 1 µM
# [5] = second compound 0.003 µM, first compound 0.0316 µM
# [6] = second compound 0.003 µM, first compound 0.1 µM
# [7] = second compound 0.003 µM, first compound 0.316 µM
# [8] = second compound 0.003 µM, first compound 1 µM
# [9] = second compound 0.00949 µM, first compound 0.0316 µM
# [10] = second compound 0.00949 µM, first compound 0.1 µM
# [11] = second compound 0.00949 µM, first compound 0.316 µM
# [12] = second compound 0.00949 µM, first compound 1 µM
# [13] = second compound 0.03 µM, first compound 0.0316 µM
# [14] = second compound 0.03 µM, first compound 0.1 µM
# [15] = second compound 0.03 µM, first compound 0.316 µM
# [16] = second compound 0.03 µM, first compound 1 µM
# [17] = second compound 0.0949 µM, first compound 0.0316 µM
# [18] = second compound 0.0949 µM, first compound 0.1 µM
# [19] = second compound 0.0949 µM, first compound 0.316 µM
# [20] = second compound 0.0949 µM, first compound 1 µM
# [21] = second compound 0.3 µM, first compound 0.0316 µM
# [22] = second compound 0.3 µM, first compound 0.1 µM
# [23] = second compound 0.3 µM, first compound 0.316 µM
# [24] = second compound 0.3 µM, first compound 1 µM
# [25] = second compound 0.000949 µM, first compound 3.16 µM
# [26] = second compound 0.000949 µM, first compound 10 µM
# [27] = second compound 0.003 µM, first compound 3.16 µM
# [28] = second compound 0.003 µM, first compound 10 µM
# [29] = second compound 0.00949 µM, first compound 3.16 µM
# [30] = second compound 0.00949 µM, first compound 10 µM
# [31] = second compound 0.03 µM, first compound 3.16 µM
# [32] = second compound 0.03 µM, first compound 10 µM
# [33] = second compound 0.0949 µM, first compound 3.16 µM
# [34] = second compound 0.0949 µM, first compound 10 µM
# [35] = second compound 0.3 µM, first compound 3.16 µM
# [36] = second compound 0.3 µM, first compound 10 µM
# 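Further: spheroids exposed to compound for seven days before readout.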
# 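Wherever viability, T/C is given: 100% = DMSO vehicle control wells.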
smiles,measurement,setting,value
CCN1CCN(Cc2ccc(Nc3ncc(F)c(-c4cc(F)c5nc(C)n(C(C)C)c5c4)n3)nc2)CC1 + CCn1c(-c2cc(N3CCN(C)CC3)cnc2C(C)OC)c2c3cc(ccc31)-c1csc(n1)CC(NC(=O)C1CC1C)C(=O)N1CCCC(N1)C(=O)OCC(C)(C)C2,IC50,second compound 0.000949 µM,0.267 µM
same,IC50,second compound 0.003 µM,0.191 µM
same,IC50,second compound 0.00949 µM,0.261 µM
same,IC50,second compound 0.03 µM,0.248 µM
same,IC50,second compound 0.0949 µM,0.252 µM
same,IC50,second compound 0.3 µM,0.288 µM
same,"viability, T/C","second compound 0.000949 µM, first compound 0.00316 µM",108%
same,"viability, T/C","second compound 0.000949 µM, first compound 0.01 µM",94.2%
same,"viability, T/C",[1],82.1%
same,"viability, T/C",[2],57.4%
same,"viability, T/C",[3],51.6%
same,"viability, T/C",[4],36.9%
same,"viability, T/C","second compound 0.003 µM, first compound 0.00316 µM",105%
same,"viability, T/C","second compound 0.003 µM, first compound 0.01 µM",96%
same,"viability, T/C",[5],85.8%
same,"viability, T/C",[6],54.9%
same,"viability, T/C",[7],47.7%
same,"viability, T/C",[8],38.1%
same,"viability, T/C","second compound 0.00949 µM, first compound 0.00316 µM",96.8%
same,"viability, T/C","second compound 0.00949 µM, first compound 0.01 µM",97.4%
same,"viability, T/C",[9],82.3%
same,"viability, T/C",[10],79.8%
same,"viability, T/C",[11],42.7%
same,"viability, T/C",[12],36.4%
same,"viability, T/C","second compound 0.03 µM, first compound 0.00316 µM",96.9%
same,"viability, T/C","second compound 0.03 µM, first compound 0.01 µM",102%
same,"viability, T/C",[13],75.4%
same,"viability, T/C",[14],67.4%
same,"viability, T/C",[15],46.3%
same,"viability, T/C",[16],29.4%
same,"viability, T/C","second compound 0.0949 µM, first compound 0.00316 µM",107%
same,"viability, T/C","second compound 0.0949 µM, first compound 0.01 µM",113%
same,"viability, T/C",[17],87.2%
same,"viability, T/C",[18],64.3%
same,"viability, T/C",[19],48.9%
same,"viability, T/C",[20],39%
same,"viability, T/C","second compound 0.3 µM, first compound 0.00316 µM",117%
same,"viability, T/C","second compound 0.3 µM, first compound 0.01 µM",110%
same,"viability, T/C",[21],76%
same,"viability, T/C",[22],70.2%
same,"viability, T/C",[23],48.5%
same,"viability, T/C",[24],33.9%
Cc1nc(N2CCC3(CC2)COC(C)C3N)c(CO)nc1Sc1ccnc(N)c1Cl (stereo unspecified) + CCn1c(-c2cc(N3CCN(C)CC3)cnc2C(C)OC)c2c3cc(ccc31)-c1csc(n1)CC(NC(=O)C1CC1C)C(=O)N1CCCC(N1)C(=O)OCC(C)(C)C2,IC50,second compound 0.000949 µM,> 10 µM
same,IC50,second compound 0.003 µM,> 10 µM
same,IC50,second compound 0.00949 µM,> 10 µM
same,IC50,second compound 0.03 µM,> 10 µM
same,IC50,second compound 0.0949 µM,> 10 µM
same,IC50,second compound 0.3 µM,> 10 µM
same,"viability, T/C",[1],99.6%
same,"viability, T/C",[2],98%
same,"viability, T/C",[3],93.6%
same,"viability, T/C",[4],94.2%
same,"viability, T/C",[25],94.3%
same,"viability, T/C",[26],86.1%
same,"viability, T/C",[5],96.1%
same,"viability, T/C",[6],92.2%
same,"viability, T/C",[7],105%
same,"viability, T/C",[8],96.4%
same,"viability, T/C",[27],92.2%
same,"viability, T/C",[28],85.5%
same,"viability, T/C",[9],96%
same,"viability, T/C",[10],110%
same,"viability, T/C",[11],112%
same,"viability, T/C",[12],103%
same,"viability, T/C",[29],96.9%
same,"viability, T/C",[30],77.7%
same,"viability, T/C",[13],109%
same,"viability, T/C",[14],107%
same,"viability, T/C",[15],106%
same,"viability, T/C",[16],97.6%
same,"viability, T/C",[31],99.5%
same,"viability, T/C",[32],74.8%
same,"viability, T/C",[17],115%
same,"viability, T/C",[18],116%
same,"viability, T/C",[19],110%
same,"viability, T/C",[20],107%
same,"viability, T/C",[33],107%
same,"viability, T/C",[34],84.7%
same,"viability, T/C",[21],90.7%
same,"viability, T/C",[22],105%
same,"viability, T/C",[23],99.2%
same,"viability, T/C",[24],111%
same,"viability, T/C",[35],104%
same,"viability, T/C",[36],76.9%
NC1c2ccccc2OC12CCN(c1cnc3c(N4CCCc5ncccc54)n[nH]c3n1)CC2 (stereo unspecified) + CCn1c(-c2cc(N3CCN(C)CC3)cnc2C(C)OC)c2c3cc(ccc31)-c1csc(n1)CC(NC(=O)C1CC1C)C(=O)N1CCCC(N1)C(=O)OCC(C)(C)C2,IC50,second compound 0.000949 µM,> 10 µM
same,IC50,second compound 0.003 µM,> 10 µM
same,IC50,second compound 0.00949 µM,> 10 µM
same,IC50,second compound 0.03 µM,> 10 µM
same,IC50,second compound 0.0949 µM,8.35 µM
same,IC50,second compound 0.3 µM,8.21 µM
same,"viability, T/C",[1],101%
same,"viability, T/C",[2],87.5%
same,"viability, T/C",[3],91.5%
same,"viability, T/C",[4],81.9%
same,"viability, T/C",[25],81.4%
same,"viability, T/C",[26],51%
same,"viability, T/C",[5],103%
same,"viability, T/C",[6],87.9%
same,"viability, T/C",[7],101%
same,"viability, T/C",[8],85.7%
same,"viability, T/C",[27],81.3%
same,"viability, T/C",[28],55.5%
same,"viability, T/C",[9],87.7%
same,"viability, T/C",[10],97.7%
same,"viability, T/C",[11],92.1%
same,"viability, T/C",[12],102%
same,"viability, T/C",[29],74.3%
same,"viability, T/C",[30],56.7%
same,"viability, T/C",[13],91.5%
same,"viability, T/C",[14],87.8%
same,"viability, T/C",[15],93.8%
same,"viability, T/C",[16],73.5%
same,"viability, T/C",[31],81.9%
same,"viability, T/C",[32],50%
same,"viability, T/C",[17],113%
same,"viability, T/C",[18],99.8%
same,"viability, T/C",[19],102%
same,"viability, T/C",[20],88.5%
same,"viability, T/C",[33],83.9%
same,"viability, T/C",[34],43%
same,"viability, T/C",[21],112%
same,"viability, T/C",[22],92.6%
same,"viability, T/C",[23],81.3%
same,"viability, T/C",[24],98%
same,"viability, T/C",[35],78.7%
same,"viability, T/C",[36],43.5%
